One data set concerns NCI-H146 SCLC cell line. The data set is described as follows: In Vitro Cytotoxicity Assay II (WST-8 cell viability). The format is cell-based. The following applies: NCI-H146, 120 hours, WST-8, Table 4. On the procedure: (§1) Cell lines were harvested and plated into 96-well plates. […] The cell viability was determined by colorimetric WST-8 assay (Dojindo Molecular Technologies, Inc.). The OD450 value was read using the SpectraMax M5 plate reader. The values were normalized for each cell line, and IC50s were calculated using the Prism software.
(Tetrazolium dyes change colour on reduction, which living cells bring about.)

For a further data set, the system named is NCI-H510A SCLC cell line. The data set is described as above. The format is cell-based. The following applies: 120 hours, WST-8, Table 4. The procedure:
as §1

In the next data set the test system is NCI-H82 SCLC cell line. The data set is described as above. The data set is classed as cell-based. The note with it: NCI-H82, 120 hours, WST-8, Table 4. On the procedure:
as §1

The subject of another data set is NCI-H1048 SCLC cell line. The description is as above. The following applies: NCI-H1048, 120 hours, WST-8, Table 4. The format is cell-based, human. The procedure:
as §1

For another data set, the system named is NCI-H526 SCLC cell line. Described as above. The following applies: NCI-H526, 120 hours, WST-8, Table 4. The format is cell-based, human. On the procedure:
as §1

In data set [1] the test system is IMR32 human neuroblastoma (NB) cell line. The data set is described as follows: In Vitro Cytotoxicity Assay I (WST-8 cell viability). The note with it: IMR32, 120 hours, WST-8, Table 3. The data set is classed as cell-based. On the procedure: (§2) The cell viability was determined by colorimetric WST-8 assay (Dojindo Molecular Technologies, Inc.). The OD450 value was read using the SpectraMax M5 plate reader. The values were normalized for each cell line, and IC50 values were calculated using the Prism software.

Data set [2] relates to NCI-H526 human SCLC cell line. The data set is described as above. The data set is classed as cell-based. The note with it: NCI-H526, 120 hours, WST-8, Table 3. The procedure: as §2
The test system of data set [3] is IMR32 human neuroblastoma (NB) cell line. The data set is described as follows: In Vitro Cytotoxicity Assay III (WST-8 cell viability). The data set is classed as cell-based. The note with it: IMR32, 120 hours, WST-8, Table 5. The procedure: (§3) Cell lines were harvested and plated into 96-well plates. […] The cell viability was determined by colorimetric WST-8 assay (Dojindo Molecular Technologies, Inc.). The OD450 value was read using the SpectraMax M5 plate reader. The values were normalized for each cell line, and IC50 values were calculated using the Prism software.

For data set [4], the system named is NCI-H526 human SCLC cell line. The description is as above. The data set is classed as cell-based. The following applies: NCI-H526, 120 hours, WST-8, Table 5. On the procedure:
as §3

SMILES strings stand for the structures.

In US20260131015A1, “NEODEGRADER CONJUGATES” (priority 2022, published 2026) one finds IC50 data, which are given here for 1 compound.

For the compound `Cc1ccc(NC(=O)NCc2ccc3c(c2)CN(C2CCC(=O)NC2=O)C3=O)cc1Cl` (stereo not drawn) [CC-885, reference compound], the IC50 with NCI-H146 SCLC cell line is 0.527 nM; in the data set on NCI-H510A SCLC cell line, 0.23 nM; in the data set on NCI-H82 SCLC cell line, 0.603 nM; in the data set with NCI-H1048 SCLC cell line, 0.0409 nM; in the data set with NCI-H526 SCLC cell line it was 0.177 nM; in data set [1], 0.145 nM. Besides, the IC50 in [2] was 0.118 nM; in data set [3] it was 0.0994 nM; in [4] it was 0.128 nM.

The term IC50 denotes the concentration at which inhibition is half-maximal. The low end stands for greater potency, the high end for weaker potency.
